Reference: BindingDB's records for doi:10.1021/bi401043w (Mayo Clinic, 2013)

target: Acetylcholinesterase (Homo sapiens, UniProt P22303); assay: Assay of Substrate Hydrolysis; details: pH 7; 25 °C
Description: (§1) Assays were conducted at 25 C in 20 mM sodium phosphate buffer (pH 7.0) and 0.01% bovine serum albumin unless otherwise noted. AChE concentrations were varied to optimize measured rates.

Sequence of Acetylcholinesterase (Homo sapiens, UniProt P22303) (P22303 whole entry): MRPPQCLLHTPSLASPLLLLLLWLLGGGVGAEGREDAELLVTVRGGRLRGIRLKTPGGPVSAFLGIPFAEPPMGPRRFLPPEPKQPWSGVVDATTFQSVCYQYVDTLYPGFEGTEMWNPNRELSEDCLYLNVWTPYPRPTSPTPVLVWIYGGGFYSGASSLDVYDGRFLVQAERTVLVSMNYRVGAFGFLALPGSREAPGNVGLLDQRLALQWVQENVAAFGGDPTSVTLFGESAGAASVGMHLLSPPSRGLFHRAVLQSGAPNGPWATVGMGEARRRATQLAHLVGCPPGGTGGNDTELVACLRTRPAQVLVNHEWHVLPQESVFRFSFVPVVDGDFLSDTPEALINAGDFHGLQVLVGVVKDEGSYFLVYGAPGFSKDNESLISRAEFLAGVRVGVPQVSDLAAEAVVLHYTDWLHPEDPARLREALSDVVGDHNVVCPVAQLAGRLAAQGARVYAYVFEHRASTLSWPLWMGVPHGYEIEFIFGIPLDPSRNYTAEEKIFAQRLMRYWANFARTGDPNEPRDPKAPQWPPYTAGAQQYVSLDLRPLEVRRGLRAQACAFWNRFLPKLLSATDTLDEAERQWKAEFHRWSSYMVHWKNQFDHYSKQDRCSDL

**Q.** How did the Ki turn out when `Cc1cccc2c3c(ccc12)C1=C(C(=O)C3=O)[C@@H](C)CO1` [Dihydrotanshinone I] was run?
**A.** Its Ki is 750 nM.

**Q.** `CCC1=C[C@@H]2Cc3nc4cc(Cl)ccc4c(N)c3[C@H](C1)C2` (racemic) [(1S)-7-chloro-15-ethyl-10-azatetracyclo[11.3.1.0^{2,11}.0^{4,9}]heptadeca-2(11),3,5,7,9,14-hexaen-3-amine] was tested. Which Ki did it give?
**A.** Its Ki is 0.026 nM.

**Q.** Which Ki does the source give for `Cc1ccc2c(c1)sc(-c1ccc(N(C)C)cc1)[n+]2C` [Thioflavin T, 1] here?
**A.** Its Ki is 1000 nM.

**Q.** Which Ki does the source give for `C/C=C1\C2C=C(C)CC1(N)c1ccc(=O)[nH]c1C2` (stereo not drawn) [(+)-Huperzine A] here?
**A.** Its Ki is 4.6 nM.

**Q.** For `COc1cc2c(c3oc(=O)c4c(c13)CCC4=O)[C@@H]1C=CO[C@@H]1O2` [Aflatoxin B1], which Ki is on record?
**A.** Its Ki is 28000 nM.

**Q.** `COc1cc(-c2cc3c(c(=O)o2)C[C@]2(O)[C@@]4(C)C(=O)C=CC(C)(C)[C@]4(O)CC[C@@]2(C)O3)cc(OC)c1OC` was tested. Which Ki did it give?
**A.** Its Ki is 1.7 nM.

target: T1, Acetylcholinesterase (Mus musculus, UniProt P21836); assay: Assay of Substrate Hydrolysis; details: pH 7; 25 °C
T1 sequence (P21836 whole entry): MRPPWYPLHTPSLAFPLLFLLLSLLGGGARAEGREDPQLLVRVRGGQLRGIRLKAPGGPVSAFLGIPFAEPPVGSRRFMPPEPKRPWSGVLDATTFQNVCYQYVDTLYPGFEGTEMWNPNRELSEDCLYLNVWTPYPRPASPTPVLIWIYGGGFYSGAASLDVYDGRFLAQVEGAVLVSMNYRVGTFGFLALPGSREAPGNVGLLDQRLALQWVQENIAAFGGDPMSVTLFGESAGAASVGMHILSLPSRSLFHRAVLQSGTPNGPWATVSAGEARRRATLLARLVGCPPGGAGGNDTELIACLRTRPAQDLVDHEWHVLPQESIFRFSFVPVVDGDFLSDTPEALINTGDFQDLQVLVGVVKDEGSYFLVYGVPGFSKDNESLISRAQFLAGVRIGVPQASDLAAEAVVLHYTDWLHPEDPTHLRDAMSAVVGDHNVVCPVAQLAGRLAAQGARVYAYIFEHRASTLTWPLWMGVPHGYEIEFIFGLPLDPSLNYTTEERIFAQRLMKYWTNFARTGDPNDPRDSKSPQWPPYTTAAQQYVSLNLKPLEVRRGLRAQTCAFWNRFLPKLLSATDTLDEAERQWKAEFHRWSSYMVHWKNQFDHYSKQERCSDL
Description: as §1

**Q.** With `O=c1ccc2ccccc2o1` [2H-chromen-2-one] as the compound, how does the Ki read?
**A.** Its Ki is 9300 nM.

**Q.** How did the Ki turn out when `CC[N+](C)(C)c1cccc(O)c1` [Edrophonium Chloride, 3] was run?
**A.** Its Ki is 250 nM.

**Q.** `C[n+]1c2ccccc2cc2ccccc21` [N-methylacridinium] was tested. Which Ki did it give?
**A.** The Ki was 310 nM.
